Data set [1] deals with T1, purified recombinant rat FAAH (Rattus norvegicus, UniProt P97612).
T1 construct: made in house; host or cells: E. coli
T1 sequence (P97612 1-579): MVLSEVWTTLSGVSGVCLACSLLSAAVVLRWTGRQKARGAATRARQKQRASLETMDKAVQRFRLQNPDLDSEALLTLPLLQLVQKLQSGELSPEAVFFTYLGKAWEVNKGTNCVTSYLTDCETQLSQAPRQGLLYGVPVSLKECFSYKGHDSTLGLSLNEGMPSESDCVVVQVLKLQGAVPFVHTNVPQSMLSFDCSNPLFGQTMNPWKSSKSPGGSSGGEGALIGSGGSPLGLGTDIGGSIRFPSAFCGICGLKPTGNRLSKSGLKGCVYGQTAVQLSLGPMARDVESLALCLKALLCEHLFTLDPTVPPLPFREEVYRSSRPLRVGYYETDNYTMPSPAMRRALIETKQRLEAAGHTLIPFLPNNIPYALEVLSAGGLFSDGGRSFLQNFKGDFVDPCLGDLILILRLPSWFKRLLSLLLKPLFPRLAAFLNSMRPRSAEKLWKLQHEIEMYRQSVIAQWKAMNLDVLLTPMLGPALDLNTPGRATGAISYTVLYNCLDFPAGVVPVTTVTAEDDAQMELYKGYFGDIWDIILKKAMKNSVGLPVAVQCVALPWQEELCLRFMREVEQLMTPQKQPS
Put plainly: FAAH enzyme assay, Ki (Dixon plot), rat FAAH. As to conditions: purified recombinant rat FAAH expressed in E. coli; 14C-oleamide hydrolysis; pH 9.0; 20-23° C. The data set is classed as biochemical.

For data set [2], the target named is T2, FAAH (Homo sapiens, UniProt O00519).
T2 sequence (O00519 1-579): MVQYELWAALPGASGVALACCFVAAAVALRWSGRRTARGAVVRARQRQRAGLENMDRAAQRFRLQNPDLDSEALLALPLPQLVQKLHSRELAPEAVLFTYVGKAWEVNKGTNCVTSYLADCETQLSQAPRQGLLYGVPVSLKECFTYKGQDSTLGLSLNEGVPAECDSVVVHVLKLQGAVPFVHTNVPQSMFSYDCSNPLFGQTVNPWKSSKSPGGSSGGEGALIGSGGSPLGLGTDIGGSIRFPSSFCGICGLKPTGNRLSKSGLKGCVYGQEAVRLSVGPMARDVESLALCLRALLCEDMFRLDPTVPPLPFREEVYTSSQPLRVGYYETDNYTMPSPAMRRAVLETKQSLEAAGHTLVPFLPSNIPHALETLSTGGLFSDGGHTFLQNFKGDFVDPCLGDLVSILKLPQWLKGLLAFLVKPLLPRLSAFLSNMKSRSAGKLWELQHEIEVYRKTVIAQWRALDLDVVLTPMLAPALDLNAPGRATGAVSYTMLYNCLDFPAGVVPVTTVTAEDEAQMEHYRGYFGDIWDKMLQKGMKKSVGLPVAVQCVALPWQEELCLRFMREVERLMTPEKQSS
Put plainly: FAAH inhibition IC50, human. Details: expressed in transfected cells; host or cells: COS-7 (transient transfection), solubilized membrane extracts. It counts as biochemical. As to conditions: inhibition at 3-5 test compound concentrations. As for the experimental part:
(§1) Enzyme assays were performed at 20-23° C. with purified recombinant rat FAAH expressed in E. coli (Patricelli, M. P.; Lashuel, H. A.; et al. Biochemistry 1998, 37, 15177-15187) (unless indicated otherwise) or with solubilized COS-7 membrane extracts from cells transiently transfected with human FAAH cDNA (Giang, D. K.; Cravatt, B. F. Proc. Natl. Acad. Sci. U.S.A. 1997, 94, 2238-2242) (where specifically indicated) in a buffer of 125 mM Tris/1 mM EDTA/0.2% glycerol/0.02% Triton X-100/0.4 mM Hepes, pH 9.0 buffer (Patricelli, M. P.; Patterson, J. P.; et al. Bioorg. Med. Chem. Lett. 1998, 8, 613-618). […] NT=no data available.
(§2) IC50 values were determined from the inhibition observed at 3-5 different test compound concentrations (from three or more trials at each concentration) using the formula IC50=[I]/[K0/Ki)-1], where K0 is the control reaction rate without inhibitor and Ki is the rate with test compound at concentration [I] (Conde-Frieboes, K. et al. J. Am. Chem. Soc. 1996, 118, 5519-5525). NT=no data available.

The target in data set [3] is T3, rat FAAH (Rattus norvegicus, UniProt P97612).
T3 construct: made in house; host or cells: E. coli
T3 sequence (P97612 1-579): T1 sequence (P97612 1-579)
Nature of the data set: FAAH inhibition IC50, rat. Particulars: inhibition at 3-5 test compound concentrations. It counts as biochemical. As for the experimental part:
as §1, §2

Data set [4] deals with T2, FAAH. Put plainly: FAAH enzyme assay, Ki (Dixon plot), human FAAH. The data set is classed as biochemical. Details: expressed in transfected cells; host or cells: COS-7 (transient transfection), solubilized membrane extracts. Particulars: solubilized COS-7 membrane extracts, human FAAH cDNA; 14C-oleamide hydrolysis; pH 9.0; 20-23° C.

By Ki is commonly meant a measure of affinity in units of concentration, obtained from inhibition or displacement. The IC50 is the point on the concentration scale where inhibition reaches its midpoint. Low readings indicate inhibition by little substance, high ones a need for much substance. The melting point is the temperature, or range, at which the solid turns liquid.

In the case of `COC(=O)c1ccc(-c2cnc(C(=O)CCc3ccc(-c4ccccc4)cc3)o2)cn1` [Example 32, 5-[2-(3-Biphenyl-4-yl-propionyl)-oxazol-5-yl]pyridine-2-carboxylic acid methyl ester], in data set [1], the Ki stood at 0.6 nM. In addition, the IC50 in data set [2] turned out to be 500 nM; in data set [3], 17 nM.

As for `COC(=O)c1cc(-c2cnc(C(=O)CCc3ccc(-c4ccccc4)cc3)o2)ccn1` [Example 28, 4-[2-(3-Biphenyl-4-yl-propionyl)-oxazol-5-yl]-pyridine-2-carboxylic acid methyl ester], in data set [1], the Ki was 1.6 nM. The IC50 in data set [2] turned out to be 29 nM; in data set [3] it was 1.5 nM.

Consider `COC(=O)c1ccc(-c2cnc(C(=O)CCc3ccc(COc4ccccc4)cc3)o2)nc1` [Example 17], for which the Ki in data set [1] worked out at 3.5 nM. The figures for the IC50 in data set [2] and in data set [3] were 0.8 nM and 2.5 nM, respectively.

For `O=C(O)c1ccc(-c2cnc(C(=O)CCc3ccc(Oc4ccccc4)cc3)o2)nc1` [Example 15, 6-{2-[3-(4-Phenoxy-phenyl)-propionyl]-oxazol-5-yl}-nicotinic acid], in data set [1], the Ki was 33 nM. Further, the IC50 was found to be 0.3 nM in data set [2] and 0.2 nM in data set [3].

For `O=C(O)c1cccc(-c2cnc(C(=O)CCc3ccc(COc4ccccc4)cc3)o2)n1` [Example 18, 6-{2-[3-(4-Phenoxymethyl-phenyl)-propionyl]-oxazol-5-yl}-pyridine-2-carboxylic acid], in data set [1], the Ki turned out to be 6.1 nM. For the same compound, the values for the IC50 in data set [2] and in data set [3] were 1 nM and 0.5 nM, respectively.

In the case of `O=C(O)c1ccc(-c2cnc(C(=O)CCc3ccc(-c4ccccc4)cc3)o2)cn1` [Example 33, 5-[2-(3-Biphenyl-4-yl-propionyl)-oxazol-5-yl]-pyridine-2-carboxylic acid], in data set [1], the Ki turned out to be 44 nM. The IC50 in data set [2] was 580 nM; in data set [3], 44 nM.

`O=C(CCc1ccc(COc2ccccc2)cc1)c1ncc(-c2ccccn2)o1` [Example 11e, 3-(4-(Phenoxymethyl)phenyl)-1-(5-(pyridin-2-yl)oxazol-2-yl)propan-1-one]: the Ki came out at 1 nM in data set [1] and 5 nM in data set [4].

`O=C(O)c1cccc(-c2cnc(C(=O)CCc3ccc(-c4ccc(CN5CCOCC5)cc4)cc3)o2)n1` [Example 41, 6-{2-[3-(4′-Morpholin-4-ylmethyl-biphenyl-4-yl)-propionyl]-oxazol-5-yl}-pyridine-2-carboxylic acid]: in data set [1], the Ki was determined as 150 nM. In addition, the IC50 in data set [2] is 9 nM; in data set [3], 3 nM.

`O=C(O)c1cccc(-c2cnc(C(=O)CCc3ccc(-c4ccccc4)cc3)o2)n1` [Example 24, 6-[2-(3-Biphenyl-4-yl-propionyl)-oxazol-5-yl]-pyridine-2-carboxylic acid]: the Ki in data set [1] came out at 22 nM. The IC50 came out at 2 nM in data set [2] and 0.6 nM in data set [3].

In the case of `CCOC(=O)c1cccc(-c2cnc(C(=O)CCc3ccc(-c4ccccc4)cc3)o2)n1` [Example 22, 6-[2-(3-Biphenyl-4-yl-propionyl)-oxazol-5-yl]-pyridine-2-carboxylic acid ethyl ester], the Ki in data set [1] amounted to 3 nM. Besides, the IC50 in data set [2] and in data set [3] was 2 nM in each case.

In the case of `NC(=O)c1cccc(-c2cnc(C(=O)CCc3ccc(-c4ccccc4)cc3)o2)n1` [Example 26, 6-[2-(3-Biphenyl-4-yl-propionyl)-oxazol-5-yl]-pyridine-2-carboxylic acid amide], the Ki in data set [1] was 1.2 nM. The IC50 in data set [2] worked out at 2 nM; in data set [3] it was 0.5 nM.

In the case of `O=C(CCc1ccc(OCc2ccccc2)cc1)c1ncc(-c2ccccn2)o1` [Example 11a, 1-Oxo-1-[5-(2-pyridyl)oxazol-2-yl]-3-(4-(benzyloxy)phenyl)propane], the melting point is 99 to 100 °C. In data set [1], the Ki is 1.3 nM. In addition, affinity in data set [4] was put at a Ki of 0.45 nM.

Take `COC(=O)c1ccc(-c2cnc(C(=O)CCc3ccc(Oc4ccccc4)cc3)o2)nc1` [Example 13, 6-{2-[3-(4-Phenoxy-phenyl)-propionyl]-oxazol-5-yl}-nicotinic acid methyl ester]: in data set [1], the Ki was 54 nM. Also, the IC50 worked out at 3 nM in data set [2] and 6 nM in data set [3].

For `COC(=O)c1ccc(-c2cnc(C(=O)CCc3ccc(-c4ccccc4)cc3)o2)nc1` [Example 23, 6-[2-(3-Biphenyl-4-yl-propionyl)-oxazol-5-yl]-nicotinic acid methyl ester], the Ki in data set [1] amounted to 2.2 nM. In addition, the IC50 came out at 5 nM in data set [2] and 8 nM in data set [3].

For `O=C(O)c1cccc(-c2cnc(C(=O)CCc3ccc(Oc4ccccc4)cc3)o2)n1` [Example 14, 6-{2-[3-(4-Phenoxy-phenyl)-propionyl]-oxazol-5-yl}-pyridine-2-carboxylic acid], in data set [1], the Ki was determined as 65 nM. Also, the IC50 worked out at 2.7 nM in data set [2] and 1.5 nM in data set [3].

On to `O=C(CCc1ccc(OCc2ccccc2)cc1)c1nc2ncccc2o1` [Example 11k, 3-(4-(Benzyloxy)phenyl)-1-(oxazolo[4,5-b]pyridin-2-yl)propan-1-one], for which the Ki amounted to 0.38 nM in data set [1] and 0.6 nM in data set [4].

With `O=C(O)c1cc(-c2cnc(C(=O)CCc3ccc(-c4ccccc4)cc3)o2)ccn1` [Example 29, 4-[2-(3-Biphenyl-4-yl-propionyl)-oxazol-5-yl]-pyridine-2-carboxylic acid], in data set [1], the Ki came out at 50 nM. Further, the concentration for half-maximal inhibition (IC50) in data set [2] is 7 nM; in data set [3], 3 nM.

With `O=C(CCc1ccc(-c2ccccc2)cc1)c1ncc(-c2cccc(-c3nnn[nH]3)n2)o1` [Example 46, 3-Biphenyl-4-yl-1-{5-[6-(1H-tetrazol-5-yl)-pyridin-2-yl]-oxazol-2-yl}-propan-1-one], the Ki in data set [1] was found to be 27 nM. The IC50 in data set [2] turned out to be 83 nM; in data set [3], 9 nM.

Consider `COC(=O)c1cccc(-c2cnc(C(=O)CCc3ccc(COc4ccccc4)cc3)o2)n1` [Example 16, 6-{2-[3-(4-Phenoxymethyl-phenyl)-propionyl]-oxazol-5-yl}-pyridine-2-carboxylic acid methyl ester], for which the Ki in data set [1] worked out at 2 nM. The figures for the concentration for half-maximal inhibition (IC50) in data set [2] and in data set [3] were 1.2 nM and 1 nM, respectively.

On to `NC(=O)c1ccc(-c2cnc(C(=O)CCc3ccc(-c4ccccc4)cc3)o2)nc1` [Example 27, 6-[2-(3-Biphenyl-4-yl-propionyl)-oxazol-5-yl]-nicotinamide], for which, in data set [1], the Ki stood at 1.5 nM. The IC50 was 0.4 nM in data set [2] and 0.5 nM in data set [3].

Regarding `COC(=O)c1cccc(-c2cnc(C(=O)CCc3ccc(-c4ccccc4)cc3)o2)n1` [Example 21, 6-[2-(3-Biphenyl-4-yl-propionyl)-oxazol-5-yl]-pyridine-2-carboxylic acid methyl ester], the Ki in data set [1] and in data set [4] was 1.2 nM in each case. The IC50 in data set [2] is 3 nM; in data set [3], 0.5 nM.

The values above are taken from patent publication US8372823B2, “Tetracyclic inhibitors of fatty acid amide hydrolase” (The Scripps Research Institute, priority 2007, dated 2013).
